pIC50: −log10 of the molar value. ≈ marks a conversion by molar mass, not a printed value. Like-named read-outs stand apart in the source and are kept apart here.
Tests used:
[1] = Solubility experiment (HPLC, external standard); type: physicochemical; settings: ph 7.4 medium, pH 7.4, pH 7.4 medium, 37 °C, 24 h
Description: This experiment was intended to determine the solubility of the compounds in media at different pH values. The materials used in the experiment included: a pH 1.2 medium, a pH 4.5 medium, a pH 7.4 medium, and a diluent (acetonitrile/water = 50/50). 1. The preparation methods for media are as follows:
One centrifuge tube (containing about 2 mg of the test sample) was taken, 1 mL of DMSO was added to completely dissolve the test sample, and the mixture was marked as stock-1. 0.2 mL of stock-1 was transferred into a 10 mL volumetric flask, and then the 50:50 (acetonitrile/water) solution was added to bring the volume to the mark, so as to give a control solution.
Additionally, centrifuge tubes each containing about 1 mg of the test sample were taken, 1 mL of the corresponding medium solution was then added, and the tubes were shaken on a 37 °C water bath shaker for 24 h. After centrifugation for 3 times (centrifugation time: 10 min, rotation speed: 12000 rpm), 0.2 mL of the supernatants were taken, 0.8 mL of the diluent (acetonitrile/water = 50/50) was added to each tube, and the mixtures were vortexed and mixed well to give solubility samples.
The solubility samples described above and the control solution were sequentially analyzed by high performance liquid chromatography. The chromatographic conditions are as follows:
The actual concentration of the compound in each solubility sample was calculated according to an external standard method. Concentration (μg/mL) = (ASample × CControl × DSample)/(AControl)∗1000; [formula] Asample: the peak area of the target peak in the sample solution; Ccontrol: the concentration (mg/mL) of the control solution; Dsample: the dilution factor of the sample solution; Acontrol: the peak area of the target peak in the control solution.

[2] = tested on: AsPC-1 p-ERK; assay: Cell p-ERK assay (HTRF), AsPC-1 cells; type: cell-based, human; settings: Homo sapiens; for pIC50: ASPC1, AsPC-1 cells (KRAS G12D), 3 h incubation, read-out: AsPC-1 p-ERK IC50
Outline: (§1)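 Phospho-ERK (T202/Y204) was measured by HTRF in lysates after 3 h compound treatment at 37 °C. Cells had been plated the previous day at 20000 per well for NCI-H441 and 10000 per well for AsPC-1. Four-parameter dose-response fitting of % inhibition gave IC50 values.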

[3] = tested on: NCI-H441 cells; assay: 3D cell proliferation assay (CellTiter Glo-3D), NCI-H441; type: cell-based, human; settings: Homo sapiens, 120 h, NCI-H441 cells (KRAS G12V), 2% FBS, 5 days, read-out: H441 AP IC50
Outline: (§2)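 IC50 values come from four-parameter fits of inhibition rate against log compound concentration, using CellTiter-Glo luminescence read after 5 days' exposure. AsPC-1 and NCI-H441 were plated at 800 cells per well in low-serum (2% FBS) medium. Compound was dosed the day after seeding, with incubation at 37 °C, 5% CO2.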

[4] = tested on: AsPC-1 cells; assay: 3D cell proliferation assay (CellTiter Glo-3D), AsPC-1; type: cell-based, human; settings: Homo sapiens, ASPC1, 120 h; AsPC-1 cells (KRAS G12D), 3D, 2% FBS, 5 days; read-out: AsPC-1 AP IC50
Outline: as §2

[5] = tested on: H441 p-ERK; assay: Cell p-ERK assay (HTRF), NCI-H441 cells; type: cell-based, human; settings: Homo sapiens; NCI-H441 cells (KRAS G12V), 3 h incubation
Outline: as §1

| IC50 ([2]; ASPC1, 3 h, read-out: AsPC-1 p-ERK IC50(nM)) [nM] | SMILES | solubility at 24 h [1] [µg/mL] | pIC50 [2] | pIC50 [3] | pIC50 [4] | pIC50 [5] |
| --- | --- | --- | --- | --- | --- | --- |
| – | CCn1c(-c2cc(OCCN3CCC(C#N)(CN)CC3)c[n+]([O-])c2[C@H](C)OC)c2c3cc(ccc31)-c1csc(n1)C[C@H](NC(=O)[C@H]1[C@H](C)[C@@H]1C)C(=O)N1CCC[C@H](N1)C(=O)OCC(C)(C)C2 (atropisomer, axis not shown; (Ra)) [Compound Z73, 5-(2-(4-(aminomethyl)-4-cyanopiperidin-1-yl)ethoxy)-(Ra)-3-((6^3S,4S,Z)-4-((1r,2R,3S)-2,3-dimethylcyclopropane-1-carboxamido)-1^1-ethyl-10,10-dimethyl-5,7-dioxo-6^1,6^2,6^3,6^4,6^5,6^6-hexahydro-1^1H-8-oxa-2(4,2)-thiazola-1(5,3)-indola-6(1,3)-pyridazinacycloundecaphane-1^2-yl)-2-((S)-1-methoxyethyl)pyridine 1-oxide] | 96.6 (≈ 104 µM) | 8.50 | 8.61 | 8.60 | 8.42 |
| – | CCn1c(-c2cc(C#CCN3CCC(C(=O)NCCO)CC3)cnc2[C@H](C)OC)c2c3cc(ccc31)-c1csc(n1)C[C@H](NC(=O)[C@H]1[C@@H]3COC[C@@H]31)C(=O)N1CCC[C@H](N1)C(=O)OCC(C)(C)C2 (atropisomer, axis not shown; (Ra)) [Compound Z21, 1-(3-(5-((6^3S,4S,Z)-4-((1R,5S,6r)-3-oxabicyclo[3.1.0]hexane-6-carboxamido)-1^1-ethyl-10,10-dimethyl-5,7-dioxo-6^1,6^2,6^3,6^4,6^5,6^6-hexahydro-1^1H-8-oxa-2(4,2)-thiazola-1(5,3)-indola-6(1,3)-pyridazinacycloundecaphane-1^2-yl)-6-(Ra)-((S)-1-methoxyethyl)pyridin-3-yl)prop-2-yn-1-yl)-N-(2-hydroxyethyl)piperidine-4-carboxamide] | 9.71 (≈ 10.2 µM) | 8.77 | 9.39 | 8.95 | 9.29 |
| 1.67 | CCn1c(-c2cc(C#CCN3CCS(=O)(=O)CC3)cnc2[C@H](C)OC)c2c3cc(ccc31)-c1csc(n1)C[C@H](NC(=O)[C@@H](N)C1CCC1)C(=O)N1CCC[C@H](N1)C(=O)OCC(C)(C)C2 (atropisomer, axis not shown; (Ra)) [Compound Z16, (2S)-2-amino-2-cyclobutyl-N-((6^3S,4S,Z)-(Ra)-1^2-(5-(3-(1,1-dioxidothiomorpholino)prop-1-yn-1-yl)-2-((S)-1-methoxyethyl)pyridin-3-yl)-1^1-ethyl-10,10-dimethyl-5,7-dioxo-6^1,6^2,6^3,6^4,6^5,6^6-hexahydro-1^1H-8-oxa-2(4,2)-thiazola-1(5,3)-indola-6(1,3)-pyridazinacycloundecaphane-4-yl)acetamide] | 15 (≈ 16.4 µM) | – | – | – | 8.94 |
| – | CCn1c(-c2cc(C#CCN3CCC(C#N)(CO)CC3)c[n+]([O-])c2[C@H](C)OC)c2c3cc(ccc31)-c1csc(n1)C[C@H](NC(=O)[C@H]1[C@H](C)[C@@H]1C)C(=O)N1CCC[C@H](N1)C(=O)OCC(C)(C)C2 (atropisomer, axis not shown; (Ra)) [Compound Z45-1, 5-(3-(4-cyano-4-(hydroxymethyl)piperidin-1-yl)prop-1-yn-1-yl)-(Ra)-3-((6^3S,4S,Z)-4-((1r,2R,3S)-2,3-dimethylcyclopropane-1-carboxamido)-1^1-ethyl-10,10-dimethyl-5,7-dioxo-6^1,6^2,6^3,6^4,6^5,6^6-hexahydro-1^1H-8-oxa-2(4,2)-thiazola-1(5,3)-indola-6(1,3)-pyridazinacycloundecaphane-1^2-yl)-2-((S)-1-methoxyethyl)pyridine 1-oxide] | 5.01 (≈ 5.45 µM) | 9.55 | 9.28 | 9.92 | 9.22 |

From patent EP4775582A1, “MACROCYCLIC COMPOUND AND ANTIBODY-DRUG CONJUGATE THEREOF” (Genfleet Therapeutics (Shanghai) Inc., priority 2023, dated 2025)
